Experimental data as given in patent US10065990B2, “Cyclic peptide compound, and preparation method, pharmaceutical composition and use thereof” (HANGZHOU GUANYU BIO-MEDICAL CO., LTD, priority 2013, dated 2018).
Read-outs that look alike come from different tables or passages of the source.

Tests used:
[1] = molecular target: T1, HDAC8 (Homo sapiens, UniProt Q9BY41); test: HDAC biochemical activity measurement (fluorescent substrate deacetylation); details: 37° C. 30 minutes
T1 sequence (Q9BY41 1-377): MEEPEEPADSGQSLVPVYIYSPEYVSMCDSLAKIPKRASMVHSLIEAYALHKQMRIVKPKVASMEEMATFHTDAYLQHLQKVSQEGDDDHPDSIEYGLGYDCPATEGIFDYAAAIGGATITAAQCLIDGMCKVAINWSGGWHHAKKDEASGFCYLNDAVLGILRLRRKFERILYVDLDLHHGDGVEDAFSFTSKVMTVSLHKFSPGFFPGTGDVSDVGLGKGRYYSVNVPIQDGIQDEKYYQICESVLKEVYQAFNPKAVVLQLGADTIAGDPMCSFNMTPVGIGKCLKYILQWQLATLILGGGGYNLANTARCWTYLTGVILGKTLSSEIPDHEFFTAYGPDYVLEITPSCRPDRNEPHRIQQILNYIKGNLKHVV

[2] = molecular target: HDAC1 (Homo sapiens, UniProt Q13547); test: as above;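 further: fluorogenic acetyl-lysine substrate (20 µM) deacetylated by HDAC1, then developer releases fluorophore read at 360 nm excitation and 460 nm emission, inhibitor incubated 30 min at 37 °C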
[3] = system: MCF-7 (human breast cancer cells); test: MTT cancer cell growth inhibition; type: cell-based
Procedure, shortened: (§1)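 MTT viability, 570 nm, GI50. Cells 1500/well; compound 72 h at final 10^−5–10^−10 M in triplicate.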

[4] = system: BGC-823 (human gastric cancer cells); test: MTT cancer cell growth inhibition; type: cell-based; details: MTT
Procedure, shortened: as §1

[5] = system: Bel-7402 (human hepatoma cells); test: MTT cancer cell growth inhibition; type: cell-based; details: MTT, 72 hours incubation, Bel-7402 cells, read-out: GI50 Bel-7402
Procedure, shortened: as §1

[6] = system: U937 (human leukemia cells); test: MTT cancer cell growth inhibition; type: cell-based; details: MTT
Procedure, shortened: as §1

[7] = system: MOLT-4 (human acute lymphoblastic leukemia cells); test: MTT cancer cell growth inhibition; type: cell-based; details: MTT
Procedure, shortened: as §1

[8] = system: DU145 (human prostate cancer cells); test: MTT cancer cell growth inhibition; type: cell-based; details: MTT
Procedure, shortened: as §1

[9] = system: lncap (prostate cancer cells); test: MTT cancer cell growth inhibition; type: cell-based; details: MTT
Procedure, shortened: as §1

[10] = system: PANC-1 (Pac-1, human pancreatic cancer cells); test: MTT cancer cell growth inhibition; type: cell-based; details: MTT
Procedure, shortened: as §1

[11] = system: A549 (human lung cancer cells); test: MTT cancer cell growth inhibition; type: cell-based; details: MTT
Procedure, shortened: as §1

[12] = system: Huh-7 (human hepatoma cells); test: MTT cancer cell growth inhibition; type: cell-based; details: MTT, 72 hours incubation, Huh-7 cells, read-out: GI50 Huh-7
Procedure, shortened: as §1

[13] = molecular target: HDAC3 (Homo sapiens, UniProt O15379); test: HDAC biochemical activity measurement (fluorescent substrate deacetylation);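 further: fluorogenic acetyl-lysine substrate (20 µM) deacetylated by HDAC3, then developer added for 15 min at room temperature, release of fluorophore read at excitation 360 nm, emission 460 nm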
Method: The chemical activity of the compound is determined according to the degree of deacetylation inhibition of the HDAC enzyme. This experiment measured the degree of deacetylation related to tumor proliferation and metastasis of HDAC1, HDAC2, HDAC3, HDAC8, HDAC11 five subtypes HDAC enzymes. After the substrate containing an acetylated lysine side chain and HDAC enzyme are labeled with a fluorescent label, the fluorescent substrate is de acetyl. The fluorescent labeled substrate is cleaved by the enzyme, and the fluorescent substance is released, which generates 460 nm emission light under the excitation of 360 nm light.
HDAC substrate was diluted with reaction buffer to 200M (reaction concentration of 20M), the HDAC enzyme was diluted to the appropriate concentration, then added different concentrations of the test compounds and acted at 37° C. 30 minutes, and then added the same volume of 2-times concentration substrate developing solution (developer), incubated at room temperature for 15 minutes.

[14] = HDAC1, 37° C. 30 minutes, read-out: IC50 HDAC1
[15] = MCF-7 cells, 72 hours incubation, read-out: GI50 MCF
[16] = BGC-823 cells, 72 hours incubation, read-out: GI50 BG
[17] = U937 cells, 72 hours incubation, read-out: GI50 U93
[18] = MOLT-4 cells, 72 hours incubation, read-out: GI50 Mol
[19] = DU145 cells, 72 hours incubation, read-out: GI50 Du1
[20] = lncap cells, 72 hours incubation, read-out: GI50 lnca
[21] = PANC-1 cells, 72 hours incubation, read-out: GI50 PAN
[22] = A549 cells, 72 hours incubation, read-out: GI50 A54
[23] = read-out: IC50 HDAC3, HDAC3, 37° C. 30 minutes
[24] = Homo sapiens, MCF7, 72 h, 72 hours incubation, read-out: GI50 MCF
[25] = Homo sapiens, BGC-823, 72 h, 72 hours incubation, read-out: GI50 BG
[26] = Homo sapiens, U-937, 72 h, 72 hours incubation, read-out: GI50 U93
[27] = Homo sapiens, MOLT-4, 72 h, 72 hours incubation, read-out: GI50 Mol
[28] = Homo sapiens, DU-145, 72 h, 72 hours incubation, read-out: GI50 Du1
[29] = Homo sapiens, LNCaP, 72 h, 72 hours incubation, read-out: GI50 lnca
[30] = Homo sapiens, PANC-1, 72 h, 72 hours incubation, read-out: GI50 PAN
[31] = Homo sapiens, A549, 72 h, 72 hours incubation, read-out: GI50 A54
[32] = Homo sapiens, BGC-823, 72 h, BGC-823 cells, 72 hours incubation, read-out: GI50 BG
[33] = Homo sapiens, U-937, 72 h, U937 cells, 72 hours incubation, read-out: GI50 U93
[34] = Homo sapiens, MOLT-4, 72 h, MOLT-4 cells, 72 hours incubation, read-out: GI50 Mol
[35] = Homo sapiens, LNCaP, 72 h, lncap cells, 72 hours incubation, read-out: GI50 lnca
[36] = Homo sapiens, PANC-1, 72 h, PANC-1 cells, 72 hours incubation, read-out: GI50 PAN
[37] = Homo sapiens, A549, 72 h, A549 cells, 72 hours incubation, read-out: GI50 A54

HDAC3, sequence (O15379 whole entry, species assumed): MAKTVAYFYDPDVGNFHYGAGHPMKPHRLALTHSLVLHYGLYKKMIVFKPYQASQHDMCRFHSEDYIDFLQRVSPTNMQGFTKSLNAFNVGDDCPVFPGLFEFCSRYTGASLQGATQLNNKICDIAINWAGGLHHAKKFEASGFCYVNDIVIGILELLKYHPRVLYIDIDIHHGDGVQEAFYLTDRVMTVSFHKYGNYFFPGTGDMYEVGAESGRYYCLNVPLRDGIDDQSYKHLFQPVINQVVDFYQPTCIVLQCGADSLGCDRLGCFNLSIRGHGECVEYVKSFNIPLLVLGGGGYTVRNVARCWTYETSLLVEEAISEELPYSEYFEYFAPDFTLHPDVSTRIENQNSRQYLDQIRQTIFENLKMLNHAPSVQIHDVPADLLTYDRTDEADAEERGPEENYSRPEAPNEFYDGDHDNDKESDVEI
HDAC3, sequence (Q9Y618 395-489 partner limits assumed, species assumed): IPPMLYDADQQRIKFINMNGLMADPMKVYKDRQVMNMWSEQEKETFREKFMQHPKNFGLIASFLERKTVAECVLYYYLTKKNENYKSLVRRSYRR
HDAC1, sequence (Q13547 whole entry, species assumed): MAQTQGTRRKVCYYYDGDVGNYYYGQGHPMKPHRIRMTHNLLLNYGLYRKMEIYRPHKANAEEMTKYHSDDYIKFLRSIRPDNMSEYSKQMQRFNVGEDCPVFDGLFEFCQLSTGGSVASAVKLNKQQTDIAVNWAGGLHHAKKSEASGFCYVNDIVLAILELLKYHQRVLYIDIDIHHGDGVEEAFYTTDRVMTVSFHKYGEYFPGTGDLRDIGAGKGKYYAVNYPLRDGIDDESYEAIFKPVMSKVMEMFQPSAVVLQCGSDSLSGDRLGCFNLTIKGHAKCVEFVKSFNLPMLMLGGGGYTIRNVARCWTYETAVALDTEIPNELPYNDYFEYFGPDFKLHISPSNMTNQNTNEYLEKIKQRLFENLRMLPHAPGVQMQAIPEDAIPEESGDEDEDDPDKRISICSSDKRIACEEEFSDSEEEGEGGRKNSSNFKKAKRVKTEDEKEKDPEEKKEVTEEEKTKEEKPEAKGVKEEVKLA

| SMILES | IC50 [1] [nM] | IC50 [2, 14] [nM] | GI50 [3, 15] [nM] | GI50 [4, 16] [nM] | GI50 [5] [nM] | GI50 [6, 17] [nM] | GI50 [7, 18] [nM] | GI50 [8, 19] [nM] | GI50 [9, 20] [nM] | GI50 [10, 21] [nM] | GI50 [11, 22] [nM] | GI50 [12] [nM] | IC50 [13, 23] [nM] | GI50 [3, 24] [nM] | GI50 [4, 25] [nM] | GI50 ([5]; Homo sapiens, Bel-7402, 72 h) [nM] | GI50 [6, 26] [nM] | GI50 [7, 27] [nM] | GI50 ([12]; Homo sapiens, Huh-7, 72 h) [nM] | IC50 [13] [nM] | other results |
| --- | --- | --- | --- | --- | --- | --- | --- | --- | --- | --- | --- | --- | --- | --- | --- | --- | --- | --- | --- | --- | --- |
| C/C=C1\NC(=O)c2nc(cc(SC)n2)CNC(=O)C[C@@H](/C=C/CCSC(C)=O)OC(=O)[C@H](C(C)C)NC1=O [Compound 216] | 52 | 155 | 50 | 60 | 23 | 80 | 40 | 20 | 10 | 20 | 80 | 49 | 62 | – | – | – | – | – | – | – | – |
| C/C=C1\NC(=O)c2ccc(F)c(n2)CNC(=O)C[C@@H](/C=C/CCSC(=O)CCCCCCC)OC(=O)[C@H](Cc2ccccc2)NC1=O [Example 71] | 41 | 51 | – | – | – | – | – | – | – | – | – | – | – | 20 | 50 | 84 | 50 | 20 | 29 | 34 | GI50 [8, 28]: 60 nM; GI50 [9, 29]: 20 nM; GI50 [10, 30]: 80 nM; GI50 [11, 31]: 30 nM |
| C/C=C1\NC(=O)c2cccc(n2)CNC(=O)C[C@@H](/C=C/CCSC(=O)CCCCCCC)OC(=O)[C@H](CCSC)NC1=O [Compound 240] | 52 | 45 | – | – | – | – | – | – | – | – | – | – | – | – | – | 79 | – | – | 61 | 53 | IC50 ([2]; Table 2, read-out: IC50 HDAC1, a (compounds of the present invention)): < 50 nM; GI50 ([3]; Homo sapiens, MCF7, 72 h, 72 hours, present invention, read-out: GI50 MCF7, a): 1 nM; GI50 [4, 32]: 190 nM; GI50 ([4]; Homo sapiens, BGC-823, 72 h, 72 hours, present invention, read-out: GI50 BGC823, a): 110 nM; GI50 ([6]; Homo sapiens, U-937, 72 h, 72 hours, present invention, read-out: GI50 U937, a): 12 nM; GI50 [6, 33]: 30 nM; GI50 [7, 34]: 30 nM; GI50 ([7]; Homo sapiens, MOLT-4, 72 h, 72 hours, present invention, read-out: GI50 Molt-4, a): 18 nM; GI50 ([8]; Homo sapiens, DU-145, 72 h, 72 hours, present invention, read-out: GI50 Du145, a): 4 nM; GI50 ([9]; Homo sapiens, LNCaP, 72 h, 72 hours, present invention, read-out: GI50 lncap, a): 70 nM; GI50 [9, 35]: 10 nM; GI50 ([10]; Homo sapiens, PANC-1, 72 h, 72 hours, present invention, read-out: GI50 PANC-1, a): 190 nM; GI50 [10, 36]: 110 nM; GI50 [11, 37]: 10 nM; GI50 ([11]; Homo sapiens, A549, 72 h, 72 hours, present invention, read-out: GI50 A549, a): 36 nM |
| C/C=C1\NC(=O)c2cccc(n2)NC(=O)C[C@@H](/C=C/CCSC(C)=O)OC(=O)[C@H](C(C)C)NC1=O [Example 22] | 47 | 93 | – | – | – | – | – | – | – | – | – | – | – | 1110 | 5880 | 84 | 120 | 2060 | 82 | 61 | GI50 [8, 28]: 40 nM; GI50 [9, 29]: 390 nM; GI50 [10, 30]: 4070 nM; GI50 [11, 31]: 1030 nM |
| C/C=C1\NC(=O)c2nc(ccc2SC)CNC(=O)C[C@@H](/C=C/CCSC(=O)CCCCCCC)OC(=O)[C@H](C(C)C)NC1=O [Compound 147] | 28 | 61 | – | – | – | – | – | – | – | – | – | – | – | – | – | 28 | – | – | 57 | 51 | GI50 ([3]; Homo sapiens, MCF7, 72 h, MCF-7 cells, 72 hours incubation, read-out: GI50 MCF): 40 nM; GI50 [4, 32]: 50 nM; GI50 [6, 33]: 30 nM; GI50 [7, 34]: 80 nM; GI50 ([8]; Homo sapiens, DU-145, 72 h, DU145 cells, 72 hours incubation, read-out: GI50 Du1): 40 nM; GI50 [9, 35]: 50 nM; GI50 [10, 36]: 50 nM; GI50 [11, 37]: 30 nM |
| C/C=C1\NC(=O)c2ncc(SC)c(n2)CNC(=O)C[C@@H](/C=C/CCSC(C)=O)OC(=O)[C@H](C(C)C)NC1=O [Compound 217] | 78 | 35 | 60 | 30 | 37 | 90 | 90 | 20 | 30 | 70 | 70 | 19 | 122 | – | – | – | – | – | – | – | – |
